Results as given in PMC9303367, “Synthesis of Aminoethyl‐Substituted Piperidine Derivatives as σ1 Receptor Ligands with Antiproliferative Properties” (Chemmedchem, 2022).
Read-outs that look alike come from different tables or passages of the source.

How the values were obtained:
[1] = tested on: androgen negative human prostate cancer cells DU145; assay: DU145 cell growth inhibition, sulforhodamine B staining, 72 h; assay type: cell-based; conditions: 72 h incubation, n=3, read-out: cytotoxicity (DU145) IC 50
Procedure: In the assay, DU145 tumor cells were incubated in 96‐well plates for 24 h. Different concentrations of the test compounds were added and after incubation for additional 72 h, the amount of living cells was recorded by staining with Sulforhodamine B.[62] In Table 3 the activity of the prototypical σ1 antagonists NE‐100 and S1RA is included.
6. Growth inhibition of DU145 tumor cells
DU145 cells were purchased from ATCC and maintained in adherent conditions in RPMI 1640 medium (21875-034, Gibco®) supplemented with 2 % (S)-glutamine, 10 % fetal […]
Gibco®). For the proliferation assays, DU145 cells were seeded at a density of 2 x 10^3 cells/well in 96-well tissue culture plates. 24 h later, the cells were treated with the […]
Then, the cells were fixed with 10 % (w/v) trichloroacetic acid and stained with sulforhodamine B for 30 min. The excess of the dye was removed by washing repeatedly with 1 % (v/v) acetic acid and the protein-bound dye was solubilized with Tris base solution for optical density (OD) measurement at 510 nm with a microplate reader. Cell proliferation and viability were expressed as percentages relative to those of DMSO treated cells. The data represent the results from three independent experiments. Statistical analysis was done using T-test and Anova. Figure […]
and two reference σ1 receptor antagonists.

σ1 receptor [2] = conditions: read-out: σ1 affinity K i±SEM, cited from earlier work
σ1 receptor [3] = biological target: T1, σ1 receptor (Cavia porcellus, UniProt Q60492); assay: σ1 receptor radioligand binding assay ([3H]-(+)-pentazocine, guinea pig brain homogenate); conditions: for Ki: guinea pig brain, [3H]-(+)-pentazocine, piperidines tested as cis/trans mixtures; for σ1 : σ2 selectivity: Ki(σ2)/Ki(σ1)
T1 construct: The thawed membrane preparation of guinea pig brain cortex; tissue Harlan-Winkelmann, Borchen, Germany; host or cells: guinea pig brain (cortex) membrane homogenate
T1 sequence (Q60492 whole entry): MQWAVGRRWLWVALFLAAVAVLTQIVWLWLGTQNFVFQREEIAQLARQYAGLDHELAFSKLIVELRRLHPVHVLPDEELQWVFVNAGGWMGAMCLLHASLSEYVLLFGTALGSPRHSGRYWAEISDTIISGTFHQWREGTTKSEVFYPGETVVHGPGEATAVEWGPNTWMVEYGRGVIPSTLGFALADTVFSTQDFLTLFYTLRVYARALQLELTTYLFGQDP

σ2 receptor [4] = biological target: T2, σ2 receptor (Rattus norvegicus, UniProt Q5U3Y7); assay: σ2 receptor radioligand binding assay ([3H]DTG with excess (+)-pentazocine, rat liver membranes); conditions: for inhibition at 1 µM: test compound concentration 1 μM; for Ki: read-out: σ2 affinity K i±SEM (n=3), rat liver membranes, [3H]DTG + (+)-pentazocine
T2 construct: The thawed rat liver membrane preparation; tissue Harlan-Winkelmann, Borchen, Germany; host or cells: rat liver membrane preparation
T2 sequence (Q5U3Y7 1-176): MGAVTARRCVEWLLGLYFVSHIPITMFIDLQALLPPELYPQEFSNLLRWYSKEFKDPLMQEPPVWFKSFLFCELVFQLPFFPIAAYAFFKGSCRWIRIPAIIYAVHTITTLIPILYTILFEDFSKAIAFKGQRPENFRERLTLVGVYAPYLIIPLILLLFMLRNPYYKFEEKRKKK

[5] = logD7.4 by micro shake flask method (n-octanol / MOPS buffer pH 7.4, MS); assay type: physicochemical; conditions: read-out: logD7.4 (exp., n=3)
Procedure: However, the penalty for increased hydrolytic stability and σ1 receptor affinity of tetrahydropyrans 2 and cyclohexanes 3 is an increased molecular lipophilicity. In Figure 1 the calculated clogP values of the σ1 ligands 1–3 and one designed piperidine 4 a are summarized. In order to confirm the predicted clogP values, the logD7.4 values of the σ1 ligands 1–4 a were also determined experimentally using the micro shake flask method.[39, 40]
In order to argue with reliable lipophilicity values, the logD7.4 values of key compounds were determined experimentally following our micro‐shake‐flask protocol.[39, 40] According to this method, each compound of interest was distributed between an n‐octanol layer and an aqueous MOPS buffer pH 7.4. Subsequently, the amount of compound in the buffer layer was determined by mass spectrometry.

σ1 receptor [6] = biological target: T1, σ1 receptor; conditions: cited from earlier work
σ2 receptor [7] = biological target: T2, σ2 receptor; conditions: lead compounds 1–3; read-out: σ2 affinity K i±SEM; cited from earlier work
[8] = tested on: human non-small cell lung cancer cell line A427; assay: A427 tumor cell proliferation (confluence) assay, IncuCyte S3 live cell imaging
Procedure: In particular the confluence and IC 50 values were determined.
Live Cell imaging using the IncuCyte® S3 Live Cell Analysis System
The measurement of the cell confluence and the determination of the IC50 values were
performed with the IncuCyte® S3 Live Cell Analysis System (Essen BioScience, Ltd.,
Royston, Hertfordshire, UK)
5.4. Preparation of 96-well plates
For the preparation of the 96-well plates for the Live Cell Imager, A427 cells from the flask
were detached and centrifuged. The pellet was resuspended in 20 mL of the medium
using the vortexer. 1 mL was used to determine the number of cells and the volume
required for 8,000-12,000 cells was calculated. This volume was then added to each well
Switzerland) and the well was filled up to a total volume of 150 µL with medium.
At a confluence of 30-40 % the test compounds were added. Dilutions of concentrations
of 200, 100, 40, 20, 10 and 4 µM were prepared in medium with 2 % DMSO. 50 µL of
each dilution were added to the wells, resulting in a final assay concentration of 50, 25,
10, 5, 2.5 and 1 µM, respectively. Each concentration was measured in triplicates on each
plate and on three different days.
5.5. Measurement of cell confluence
The cell confluence was measured using the IncuCyte® S3. For the scanning with the
at a 10-fold magnification. Four pictures were taken from each well every 2 h until the
growth curve of the cells reached a plateau (approx. 5 d). The mask for the analysis of
adjustment size of -1 pixel and an area filter of minimum 200 µm2. After the analysis, a
graph showing the development of the confluence over time was produced.
5.6. Competitive confluence assay
The plates were prepared as described above with the exception that the cells were grown
in 100 µL instead of 150 µL of medium. After the cell confluence reached 30-40 %, the
(final concentration: 10 µM).

water solubility = assay type: physicochemical; conditions: at higher concentrations
σ1 receptor [9] = tested on: σ1 receptor; set-up: method as in PMID 21444132, PMID 21598296; conditions: mouse capsaicin assay; cited from earlier work
[10] = lead compounds 1–3 (enantiomers), read-out: σ1 affinity K i±SEM
[11] = read-out: σ1 affinity K i±SEM (n=3)

## CCCN(CCC)CCc1ccc(OC)c(OCCc2ccccc2)c1 [NE‐100, reference compound]
[1]
  IC50: > 10000 nM
σ1 receptor [2]; NE-100
  Ki: 1.3 nM

## CCN1CC[C@H](CCNCCCc2ccccc2)C[C@@H]1c1ccccc1 [19b, cis‐N‐(2‐(1‐Ethyl‐2‐phenylpiperidin‐4‐yl)ethyl)‐3‐phenylpropan‐1‐amine]
σ1 receptor [3]; σ1 affinity K i±SEM (n=3)
  Ki: 2400 nM
σ2 receptor [4]
  preference for the σ2 receptor over the σ1 receptor: 7 fold

## c1ccc(CNCCC2CCCC(c3ccccc3)C2)cc1 (stereo not drawn) [compound 3]
[5]
  logD: 3.25 ± 0.02
σ1 receptor [6]; [10]
  Ki: 0.61 ± 0.1 nM
σ1 receptor [6]; lead compounds 1–3
  σ1 : σ2 selectivity: 80
σ2 receptor [7]
  Ki: 49 ± 31 nM

## c1ccc(CCCNCCC2CCNC(c3ccccc3)C2)cc1 (stereo not drawn) [4b, cis‐ and trans‐N‐(3‐Phenylpropyl)‐2‐(2‐phenyl‐piperidin‐ 4‐yl)ethan‐1‐amine]
σ1 receptor [3]; σ1 affinity K i±SEM (n=3)
  Ki: 849 nM
σ2 receptor [4]
  inhibition at 1 µM: 0%

## CN1CCC(CCN2CCN(c3ccccc3)CC2)CC1c1ccccc1 (stereo not drawn) [22a, cis‐ and trans‐1‐(2‐(1‐Methyl‐2‐phenyl‐ piperidin‐4‐yl)ethyl)‐4‐phenylpiperazine]
σ1 receptor [3]
  σ1 : σ2 selectivity: 59
σ1 receptor [3]; [11]
  Ki: 27 ± 11 nM
σ1 receptor [3]; σ1 affinity K i±SEM (n=3)
  Ki: < 27 nM
σ2 receptor [4]
  Ki: 1600 nM
[1]; Homo sapiens, DU-145
  IC50: 4000 nM

## Cc1cc(OCCN2CCOCC2)nn1-c1ccc2ccccc2c1 [S1RA, reference compound]
[1]
  IC50: > 10000 nM
σ1 receptor [2]; S1RA
  Ki: 17 ± 7 nM

## Cc1ccc(S(=O)(=O)N2CCC(CCNCc3ccccc3)CC2c2ccccc2)cc1 (stereo not drawn) [13a, cis‐ and trans‐N‐Benzyl‐2‐(2‐phenyl‐1‐tosyl‐piperidin‐ 4‐yl)ethan‐1‐amine]
σ1 receptor [3]
  σ1 : σ2 selectivity: 13
σ1 receptor [3]; σ1 affinity K i±SEM (n=3)
  Ki: 57 ± 21 nM
other
  melting point: 79 °C

## c1ccc(CNCCC2CCCC(c3ccccc3)O2)cc1 (stereo not drawn) [compound 2]
[5]
  logD: 2.52 ± 0.05
σ1 receptor [6]; [10]
  Ki: 1.6 ± 0.2 nM
σ2 receptor [7]
  Ki: 378 nM

## CC(C)=CCN1CC[C@]2(C)c3cc(O)ccc3C[C@H]1[C@H]2C [(+)‐pentazocine, reference compound]
[8]; A427 cells, last time point (approx. 5 d), n = 3
  Inhibition of cell confluency IC50 ± SD: no effect

## CN1CC[C@H](CCNCCCc2ccccc2)C[C@@H]1c1ccccc1 [19a, cis‐N‐(2‐(1‐Methyl‐2‐phenylpiperidin‐4‐yl)‐ethyl)‐3‐ phenylpropan‐1‐amine]
σ1 receptor [3]
  σ1 : σ2 selectivity: >20
σ1 receptor [3]; σ1 affinity K i±SEM (n=3)
  Ki: 50 ± 17 nM
σ2 receptor [4]
  inhibition at 1 µM: 0%

## c1ccc(CNCCC2CCNC(c3ccccc3)C2)cc1 (stereo not drawn) [4a, cis‐ and trans‐N‐Benzyl‐2‐(2‐phenylpiperidin‐4‐yl)ethan‐1‐amine]
σ1 receptor [3]; [11]
  Ki: 165 nM
σ2 receptor [4]
  Ki: 372 nM
[5]
  logD: -0.79 ± 0.07
Water solubility
  water solubility: good water solubility
[8]; Homo sapiens, A-427, 120 h, read-out: Inhibition of cell confluency IC50 ± SD, A427 cells, last time point (approx. 5 d), n = 3
  IC50: 18000 nM
[8]; effect reduced by σ1 agonist (+)-pentazocine (10 μM)
  functional behaviour at σ1 receptor in A427 tumor cell proliferation assay: σ1 receptor antagonist
[8]; read-out: Inhibition of cell confluency IC50 ± SD, A427 cells, last time point (approx. 5 d), n = 3
  IC50: 17000 nM

## CN1CCC(CCNCC2CCCCC2)CC1c1ccccc1 (stereo not drawn) [20a, cis‐ and trans‐N‐(Cyclohexylmethyl)‐2‐(1‐methyl‐ 2‐phenylpiperidin‐4‐yl)ethan‐1‐amine]
σ1 receptor [3]
  σ1 : σ2 selectivity: 18
σ1 receptor [3]; σ1 affinity K i±SEM (n=3)
  Ki: 16 ± 5 nM
[1]; Homo sapiens, DU-145
  IC50: 4900 nM

## c1ccc(CNCCC2CCOC(c3ccccc3)O2)cc1 (stereo not drawn) [compound 1]
[5]
  logD: 1.36 ± 0.02
σ1 receptor [6]; 1,3-dioxane 1, read-out: σ1 affinity K i
  Ki: 19 nM
σ1 receptor [6]; [10]
  Ki: 6 ± 1 nM
σ2 receptor [7]
  Ki: 4200 nM
σ1 receptor [9]
  antiallodynic activity in vivo: high antiallodynic activity

## CN1CCC(CCNCc2ccccc2)CC1c1ccccc1 (stereo not drawn) [18a, cis‐ and trans‐N‐Benzyl‐2‐(1‐methyl‐2‐phenyl‐piperidin‐ 4‐yl)ethan‐1‐amine]
σ1 receptor [3]
  σ1 : σ2 selectivity: 61
σ1 receptor [3]; [11]
  Ki: 7.9 ± 0.2 nM
[5]
  logD: 0.52 ± 0.01

## CN(CCC1CCN(C)C(c2ccccc2)C1)Cc1ccccc1 (stereo not drawn) [21a, cis‐ and trans‐N‐Benzyl‐N‐methyl‐2‐(1‐methyl‐ 2‐phenylpiperidin‐4‐yl)ethan‐1‐amine]
σ1 receptor [3]
  σ1 : σ2 selectivity: 4
σ1 receptor [3]; [11]
  Ki: 19 ± 9 nM
σ1 receptor [3]; σ1 affinity K i±SEM (n=3)
  Ki: < 27 nM
σ2 receptor [4]
  Ki: 77 ± 5 nM
[1]; Homo sapiens, DU-145
  IC50: 5500 nM

## CCN1CCC(CCNCc2ccccc2)CC1c1ccccc1 (stereo not drawn) [18b, cis‐ and trans‐N‐Benzyl‐2‐(1‐ethyl‐2‐phenyl‐piperidin‐ 4‐yl)ethan‐1‐amine]
σ1 receptor [3]
  σ1 : σ2 selectivity: 1
σ1 receptor [3]; σ1 affinity K i±SEM (n=3)
  Ki: 129 ± 38 nM

## Cc1ccc(S(=O)(=O)N2CCC(CCNCCCc3ccccc3)CC2c2ccccc2)cc1 (stereo not drawn) [13b, cis‐ and trans‐N‐(3‐Phenylpropyl)‐2‐(2‐phenyl‐1‐tosylpiperidin‐4‐yl)ethan‐1‐amine]
σ1 receptor [3]
  σ1 : σ2 selectivity: 2
σ1 receptor [3]; σ1 affinity K i±SEM (n=3)
  Ki: 291 ± 139 nM
